Assay results reported in PMC4268884 (Nature communications, 2014).

Molecular target: LRRK2 (Homo sapiens, UniProt Q5S007, G2019S)
Experiment: loss of constitutive phosphorylation in cells
Format: cell-based

Chain of LRRK2 (Q5S007 whole entry G2019S): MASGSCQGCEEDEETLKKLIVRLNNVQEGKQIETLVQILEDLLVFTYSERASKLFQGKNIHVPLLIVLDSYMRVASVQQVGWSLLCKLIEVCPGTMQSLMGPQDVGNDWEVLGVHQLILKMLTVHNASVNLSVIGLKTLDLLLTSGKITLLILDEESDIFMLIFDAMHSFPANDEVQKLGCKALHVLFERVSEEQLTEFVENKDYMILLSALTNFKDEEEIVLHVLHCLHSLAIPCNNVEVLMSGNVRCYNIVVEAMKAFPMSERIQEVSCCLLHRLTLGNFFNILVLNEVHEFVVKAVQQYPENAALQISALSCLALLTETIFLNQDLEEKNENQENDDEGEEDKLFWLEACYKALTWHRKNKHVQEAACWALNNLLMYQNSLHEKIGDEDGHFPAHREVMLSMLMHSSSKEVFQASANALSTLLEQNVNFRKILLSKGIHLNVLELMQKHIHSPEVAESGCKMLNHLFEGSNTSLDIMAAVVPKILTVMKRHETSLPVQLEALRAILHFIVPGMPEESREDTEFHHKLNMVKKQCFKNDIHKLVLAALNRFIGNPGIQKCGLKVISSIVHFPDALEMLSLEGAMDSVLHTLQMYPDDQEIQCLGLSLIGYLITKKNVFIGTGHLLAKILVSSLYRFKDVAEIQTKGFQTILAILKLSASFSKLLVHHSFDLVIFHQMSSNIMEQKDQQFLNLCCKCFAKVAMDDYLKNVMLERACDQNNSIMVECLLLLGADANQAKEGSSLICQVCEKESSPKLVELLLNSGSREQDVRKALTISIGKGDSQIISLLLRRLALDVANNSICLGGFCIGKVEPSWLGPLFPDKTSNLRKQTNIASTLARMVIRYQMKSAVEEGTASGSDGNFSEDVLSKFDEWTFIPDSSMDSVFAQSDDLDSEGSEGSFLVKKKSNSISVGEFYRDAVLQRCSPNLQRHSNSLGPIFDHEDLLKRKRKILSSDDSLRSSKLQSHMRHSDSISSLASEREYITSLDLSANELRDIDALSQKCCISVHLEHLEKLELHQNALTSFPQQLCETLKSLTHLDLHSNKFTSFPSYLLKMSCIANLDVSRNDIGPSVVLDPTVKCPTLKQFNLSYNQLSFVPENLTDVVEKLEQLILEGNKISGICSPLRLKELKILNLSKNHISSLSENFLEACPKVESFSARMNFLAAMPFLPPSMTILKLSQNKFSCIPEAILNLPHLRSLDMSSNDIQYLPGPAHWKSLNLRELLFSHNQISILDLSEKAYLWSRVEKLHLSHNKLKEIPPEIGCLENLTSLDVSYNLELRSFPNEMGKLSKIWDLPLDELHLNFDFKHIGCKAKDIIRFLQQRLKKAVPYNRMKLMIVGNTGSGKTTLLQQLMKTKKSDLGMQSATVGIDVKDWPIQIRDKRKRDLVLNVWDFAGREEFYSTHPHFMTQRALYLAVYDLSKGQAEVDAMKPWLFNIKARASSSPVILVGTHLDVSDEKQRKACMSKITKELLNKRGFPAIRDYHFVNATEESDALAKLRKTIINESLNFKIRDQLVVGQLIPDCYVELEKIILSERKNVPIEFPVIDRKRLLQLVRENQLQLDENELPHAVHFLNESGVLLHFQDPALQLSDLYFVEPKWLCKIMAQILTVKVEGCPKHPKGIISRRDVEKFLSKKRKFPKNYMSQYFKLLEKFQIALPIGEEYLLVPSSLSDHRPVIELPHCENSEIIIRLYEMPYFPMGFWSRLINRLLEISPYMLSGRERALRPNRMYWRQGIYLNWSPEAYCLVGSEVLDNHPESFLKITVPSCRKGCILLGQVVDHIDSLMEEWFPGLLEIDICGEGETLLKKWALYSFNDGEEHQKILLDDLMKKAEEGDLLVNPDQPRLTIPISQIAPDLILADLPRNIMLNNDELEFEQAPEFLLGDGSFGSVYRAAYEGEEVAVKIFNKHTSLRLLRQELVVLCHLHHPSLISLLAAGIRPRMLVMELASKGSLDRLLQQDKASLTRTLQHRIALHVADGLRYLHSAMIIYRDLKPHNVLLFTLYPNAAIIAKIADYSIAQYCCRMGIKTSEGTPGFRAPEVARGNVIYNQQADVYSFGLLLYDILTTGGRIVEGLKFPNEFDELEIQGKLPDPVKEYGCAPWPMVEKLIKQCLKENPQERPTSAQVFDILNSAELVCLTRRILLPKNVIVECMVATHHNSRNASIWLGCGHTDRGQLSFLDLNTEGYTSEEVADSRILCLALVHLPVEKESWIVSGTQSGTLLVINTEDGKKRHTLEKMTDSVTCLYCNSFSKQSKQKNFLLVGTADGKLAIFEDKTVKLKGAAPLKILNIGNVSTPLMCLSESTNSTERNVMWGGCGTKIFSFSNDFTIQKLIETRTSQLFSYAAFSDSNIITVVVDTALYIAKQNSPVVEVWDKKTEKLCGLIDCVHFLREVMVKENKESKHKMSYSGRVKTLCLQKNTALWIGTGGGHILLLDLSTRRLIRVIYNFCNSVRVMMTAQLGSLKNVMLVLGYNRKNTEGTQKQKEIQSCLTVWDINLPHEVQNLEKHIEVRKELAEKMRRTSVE

In the case of `COc1cc(C(=O)N2CCC(N3CCN(C)CC3)CC2)ccc1Nc1ncc2c(n1)N(C)c1ccccc1C(=O)N2C` [LRRK2-IN1], the “loss of constitutive phosphorylation in cells” value was “The pathogenic G2019S mutation in the kinase domain is phosphorylated and sensitive to the effects of LRRK2-IN1”.
